In patent publication US10882845B2, “Crystal form of deuterated AZD9291, preparation method therefor, and use thereof” (TYK MEDICINES INC., priority 2017, dated 2021):
Counter-ions that a name gives are not always drawn.

Assays:
[1] = Passage through the blood-brain barrier into the brain; assay type: in vivo; settings: in the body
From the text: At present, some deuterated AZD9291 compounds have been reported in CN104140418B and CN105237515A, but no crystal forms of the pharmaceutically acceptable salt of deuterated AZD9291 have been reported. A crystal form is a solid state of a drug. The study of the drug crystal form is the study of the basic state of the drug. It is impossible to find a crystal form of a drug (solid material) that is more suitable for treating the disease, unless having a full and comprehensive understanding of the crystal form of the chemical drug. The crystal form of a drug can affect physical and chemical properties of the drug, and directly affect the clinical basis of the drug to play a role in the treatment of disease. At the same time, due to the solubility of some drugs, such drugs shall be made into a pharmaceutically acceptable salt, which can greatly improve its solubility and improve the absorption and utilization of drugs. The applicant has been engaged in the research of drugs for lung cancer, started drug research on EGFR targets very early, and has obtained a series of research results6, such as patent applications CN102659692, U.S. Ser. No. 08/916,572, CN107382879, WO2017219500 and WO2018050052. […] Therefore, it has no effect on tumors metastasized to the brain. […]

in vivo = settings: rat, po
From the text: Moreover, a single impurity is below 0.1%, which is in line with requirements for the development of API and CMC.
The high bioavailability of oral administration proves that this crystal form is suitable for the development of oral preparations.

[2] = Accelerated stability test (drug accelerated stability test chamber, 40° C., relative humidity 75%); assay type: physicochemical; settings: 75% RH
Protocol: The stability of the crystal form of the compound represented by the formula (I) or the formula (II) was further measured, and the apparatus used was a drug accelerated stability test chamber; the accelerated test condition was 40° C., and the relative humidity was 75%. After an accelerated test for six months in the drug accelerated stability test chamber was completed, a sample of the crystal form of the compound of the formula (I) or the formula (II) was obtained and subjected to X-ray powder diffraction analysis, and the obtained X-ray powder diffraction pattern was as shown in FIG. 2.

[3] = Stability at room temperature; assay type: physicochemical; settings: for Purity (HPLC) / character (visual inspection) / hygroscopicity (visual inspection): room temperature
From the text: The crystal form of the compound of the formula (I) or the formula (II) obtained by the method 1 or the method 2 of the present invention is not changed in moisture absorption or the like after being left at room temperature for 1 month. […] Its purity was as high as 99.83%, and the content of each single impurity was below 0.1%, which was suitable for the subsequent development of active pharmaceutical ingredient and preparations as well as subsequent pharmacokinetic experiments and zoological experiments.
The crystal form of deuterated AZD9291 mesylate prepared in the present invention was placed in a laboratory at room temperature, and the stability at room temperature was examined.

[4] = Accelerated stability test (drug accelerated stability test chamber, 40° C., relative humidity 75%); assay type: physicochemical; settings: 75% RH; remark: listed apart in the source

Question: For C=CC(=O)Nc1cc(Nc2nccc(-c3c[nH]c4ccccc34)n2)c(OC)cc1N(C)CCN(C)C [AZ5104], which “passage through the blood-brain barrier” value [1] is on record?
Answer: cannot pass through the blood-brain barrier

Question: Which “passage through the blood-brain barrier” value [1] does the source give for C=CC(=O)Nc1cc(Nc2nccc(-c3cn(C)c4ccccc34)n2)c(OC)cc1N(C)CCN(C)C [compound of formula III] here?
Answer: can enter the brain through the blood-brain barrier

Question: What does the source list for [2H]C([2H])([2H])n1cc(-c2ccnc(Nc3cc(NC(=O)C=C)c(N(C)CCN(C)C)cc3OC)n2)c2ccccc21 [deuterated AZD9291 mesylate crystal form]?
Answer: AUC (in vivo): 1270 ng·h/mL; bioavailability (in vivo): 30.9%; highest blood concentration (in vivo): 117 ng/mL; crystal form (X-ray powder diffraction) ([2]; month 6, listed as crystal form of the compound represented by the formula (I) or the formula (II)): no crystal; crystal form (X-ray powder diffraction) ([2]; month 6, listed as crystal form of the present invention): maintained; change in moisture absorption or the like ([3]; left at room temperature for 1 month): not changed; Purity (HPLC) ([3]; day 0): 99.73%; character (visual inspection) ([3]; day 0): off-white powder; Purity (HPLC) ([3]; day 15): 99.70%; character (visual inspection) ([3]; day 15): off-white powder; hygroscopicity (visual inspection) ([3]; day 15): (no hygroscopicity); Purity (HPLC) ([3]; day 30): 99.74%; character (visual inspection) ([3]; day 30): off-white powder; hygroscopicity (visual inspection) ([3]; day 30): (no hygroscopicity); character (visual inspection) ([4]; month 0): off-white; compound purity (HPLC) ([4]; month 0): 99%,; deuteration rate (HNMR) ([4]; month 0): rate 99%; character (visual inspection) ([4]; month 1): off-white,; compound purity (HPLC) ([4]; month 1): 99%,; deuteration rate (HNMR) ([4]; month 1): rate 99%; hygroscopicity (visual inspection) ([4]; month 1): no; character (visual inspection) ([4]; month 2): off white,; compound purity (HPLC) ([4]; month 2): 99%,; deuteration rate (HNMR) ([4]; month 2): rate 99%; hygroscopicity (visual inspection) ([4]; month 2): no; character (visual inspection) ([4]; month 3): off white,; compound purity (HPLC) ([4]; month 3): 99%,; deuteration rate (HNMR) ([4]; month 3): rate 99%; hygroscopicity (visual inspection) ([4]; month 3): no; character (visual inspection) ([4]; month 4): off white,; compound purity (HPLC) ([4]; month 4): 99%,; deuteration rate (HNMR) ([4]; month 4): rate 99%; hygroscopicity (visual inspection) ([4]; month 4): no; character (visual inspection) ([4]; month 6): off white,; compound purity (HPLC) ([4]; month 6): 99%,; deuteration rate (HNMR) ([4]; month 6): rate 99%; hygroscopicity (visual inspection) ([4]; month 6): no
